Experimental data reported in the supplement of paper PMC10307832.

Assays:
Experiment in all cases: relative viability (nuclei count vs DMSO), 5 days (fraction); higher = more cells survive
ALW-II-49-7 + Crizotinib = compound: Cc1ccc(C(=O)Nc2cccc(C(F)(F)F)c2)cc1Nc1cncc(C(N)=O)c1 [ALW-II-49-7] + C[C@@H](Oc1cc(-c2cnn(C3CCNCC3)c2)cnc1N)c1c(Cl)ccc(F)c1Cl [Crizotinib] (partner 1 µM)
How it was run: (§1)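 Relative viability was taken as the ratio of nuclei in treated wells to nuclei in vehicle wells. Lung cancer cell lines in 1536-well plates received compounds by pin tool one day after seeding, either one drug alone or a fixed anchor-drug dose plus five library-drug doses (not always all listed) in √10 steps. Nuclei were counted on 4× images after 5 days of treatment, and values are medians of duplicate plates.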

ALW-II-49-7 + Pictilisib = compound: Cc1ccc(C(=O)Nc2cccc(C(F)(F)F)c2)cc1Nc1cncc(C(N)=O)c1 [ALW-II-49-7] + CS(=O)(=O)N1CCN(Cc2cc3nc(-c4cccc5[nH]ncc45)nc(N4CCOCC4)c3s2)CC1 [Pictilisib] (partner 1 µM)
How it was run: as §1

XMD13-2 + Palbociclib = compound: C1CC1C(=O)NC2=NNC3=C2C=CC(=C3)C4=CC(=CC=C4)C(=O)NC5CC5 [XMD13-2] + CC(=O)c1c(C)c2cnc(Nc3ccc(N4CCNCC4)cn3)nc2n(C2CCCC2)c1=O [Palbociclib] (partner 0.5 µM)
How it was run: as §1

Dasatinib + Trametinib = compound: Cc1nc(Nc2ncc(C(=O)Nc3c(C)cccc3Cl)s2)cc(N2CCN(CCO)CC2)n1 [Dasatinib] + CC(=O)Nc1cccc(-n2c(=O)n(C3CC3)c(=O)c3c(Nc4ccc(I)cc4F)n(C)c(=O)c(C)c32)c1 [Trametinib] (partner 0.02 µM)
How it was run: as §1

Cell Line	relative viability (ALW-II-49-7 + Crizotinib; first compound 0.08 µM)	relative viability (ALW-II-49-7 + Crizotinib; first compound 0.253 µM)	relative viability (ALW-II-49-7 + Crizotinib; first compound 0.8 µM)	relative viability (ALW-II-49-7 + Crizotinib; first compound 2.53 µM)	relative viability (ALW-II-49-7 + Crizotinib; first compound 8 µM)	relative viability (ALW-II-49-7 + Pictilisib; first compound 0.08 µM)	relative viability (ALW-II-49-7 + Pictilisib; first compound 0.253 µM)	relative viability (ALW-II-49-7 + Pictilisib; first compound 0.8 µM)	relative viability (ALW-II-49-7 + Pictilisib; first compound 2.53 µM)	relative viability (ALW-II-49-7 + Pictilisib; first compound 8 µM)	relative viability (XMD13-2 + Palbociclib; first compound 0.05 µM)	relative viability (XMD13-2 + Palbociclib; first compound 0.1581 µM)	relative viability (XMD13-2 + Palbociclib; first compound 0.5 µM)	relative viability (XMD13-2 + Palbociclib; first compound 1.581 µM)	relative viability (XMD13-2 + Palbociclib; first compound 5 µM)	relative viability (Dasatinib + Trametinib; first compound 0.005 µM)	relative viability (Dasatinib + Trametinib; first compound 0.01581 µM)	relative viability (Dasatinib + Trametinib; first compound 0.05 µM)	relative viability (Dasatinib + Trametinib; first compound 0.1581 µM)	relative viability (Dasatinib + Trametinib; first compound 0.5 µM)
LU99A	0.535	0.508	0.521	0.604	0.546	0.323	0.325	0.297	0.325	0.293	0.402	0.38	0.391	0.402	0.27	0.539	0.576	0.458	0.372	0.328
LXF-289	0.817	0.817	0.911	0.923	0.876	0.711	0.778	0.8	0.773	0.746	0.627	0.64	0.535	0.634	0.612	0.678	0.746	0.821	0.555	0.219
NCI-H23	0.419	0.475	0.493	0.598	0.509	0.524	0.448	0.459	0.526	0.441	0.572	0.514	0.502	0.58	0.658	0.376	0.278	0.231	0.188	0.168
NCI-H322M	0.928	0.689	0.775	1.04	0.71	0.449	0.49	0.479	0.499	0.556	0.494	0.491	0.498	–	0.49	0.543	0.44	0.429	0.333	0.269
NCI-H358	0.616	0.412	0.486	0.435	0.539	0.361	0.401	0.363	0.405	0.456	0.139	0.121	0.133	0.117	0.129	0.151	0.116	0.105	0.0936	0.089
NCI-H441	0.772	0.714	0.676	0.598	0.625	0.439	0.382	0.49	0.458	0.378	0.239	0.224	0.219	0.225	0.28	0.409	0.418	0.328	0.208	0.181
NCI-H460	1	0.877	0.802	1.01	0.793	0.443	0.337	0.357	0.431	0.4	0.183	0.167	0.21	0.233	0.286	0.0853	0.0968	0.0795	0.0504	0.0455
NCI-H520	0.751	0.638	–	0.682	0.723	0.234	0.302	–	0.264	0.259	0.256	0.239	0.213	0.203	0.188	0.614	0.322	0.298	0.144	0.205
NCI-H647	1.07	1.4	1.28	0.776	0.67	0.489	0.507	–	0.469	0.499	0.491	0.384	0.408	0.5	0.225	0.372	0.224	0.244	0.145	0.116
NCI-H650	0.679	0.699	0.62	0.43	0.516	0.893	0.873	0.763	0.39	0.528	0.321	0.335	0.33	0.305	0.31	0.888	0.899	0.847	0.503	0.458
NCI-H661	–	1	0.922	–	1.04	0.377	0.345	0.348	–	0.351	0.378	0.395	0.392	0.406	0.408	0.629	0.49	0.532	0.445	0.338
NCI-H727	0.739	0.874	0.847	0.804	0.885	0.511	0.415	0.267	0.432	0.292	0.677	0.691	0.758	0.601	0.627	0.355	0.281	0.322	0.296	0.25
NCI-H838	0.851	0.871	0.854	0.788	1	0.342	0.464	0.432	0.46	0.393	0.238	0.214	0.249	0.224	0.205	0.486	0.435	0.365	0.227	0.142
NCI-H1355	1	1.03	1.11	0.928	0.935	0.413	0.469	0.395	0.322	0.345	0.442	0.365	0.42	0.398	0.425	0.48	0.346	0.5	0.293	0.265
NCI-H1437	0.897	0.865	–	0.869	0.896	0.435	0.414	–	0.432	0.399	0.297	0.299	0.335	0.327	0.255	0.55	0.465	0.433	0.305	0.25
NCI-H1650	0.946	0.859	0.931	1.01	1.14	0.583	0.5	0.581	0.618	0.6	0.29	0.399	0.385	0.332	0.312	0.667	0.493	0.406	0.313	0.216
NCI-H1651	0.947	0.767	0.823	0.862	0.835	0.525	0.38	0.329	0.491	0.572	0.543	0.507	0.508	0.527	0.503	0.848	0.852	0.834	0.77	0.679
NCI-H1666	0.948	0.964	0.909	1.06	0.965	0.639	0.578	0.406	0.477	0.501	0.629	0.685	0.67	0.665	0.675	0.879	0.858	0.986	0.776	0.833
NCI-H1734	0.787	0.642	0.614	0.762	0.651	0.491	0.42	0.491	0.48	0.499	0.413	0.332	0.361	0.358	0.297	0.665	0.59	0.612	0.599	0.512
NCI-H1755	0.917	0.859	0.753	0.79	0.69	0.377	0.531	0.421	0.352	0.307	0.468	0.444	0.457	0.474	0.409	0.752	0.68	0.658	0.444	0.301
NCI-H1792	0.795	0.866	0.819	0.827	0.878	0.232	0.21	0.215	0.183	0.258	0.773	0.691	0.686	0.765	0.687	0.343	0.272	0.324	0.218	0.0771
NCI-H1915	0.896	0.863	0.828	0.682	0.572	0.945	1.18	0.966	0.818	0.645	0.56	0.509	0.529	0.481	0.509	0.291	0.245	0.228	0.151	0.0841
NCI-H1944	1.14	0.981	1.06	1.09	1.12	0.314	0.371	0.328	0.364	0.324	0.323	0.312	0.325	0.351	0.322	0.389	0.367	0.348	0.218	0.153
NCI-H1975	0.838	1.04	0.852	0.912	0.893	0.282	0.308	0.232	0.287	0.281	0.77	0.607	0.538	0.678	0.61	0.364	0.25	0.272	0.232	0.177
NCI-H1993	0.744	1.01	0.884	1.06	1.06	0.79	1.01	0.746	0.807	0.619	0.641	0.484	0.722	0.606	0.547	0.418	0.396	0.532	0.353	0.525
NCI-H2009	1.02	1.02	0.964	0.835	0.729	0.836	0.828	0.783	0.575	0.438	0.244	0.229	0.215	0.204	0.153	0.26	0.173	0.184	0.12	0.0876
NCI-H2023	0.703	0.714	0.554	0.622	0.729	0.244	0.206	0.251	0.221	0.217	0.436	0.373	0.439	0.328	0.363	0.487	0.49	0.432	0.364	0.326
